Target: T1, Acetylcholinesterase (Rattus norvegicus, UniProt P37136)
T1 sequence (P37136 whole entry): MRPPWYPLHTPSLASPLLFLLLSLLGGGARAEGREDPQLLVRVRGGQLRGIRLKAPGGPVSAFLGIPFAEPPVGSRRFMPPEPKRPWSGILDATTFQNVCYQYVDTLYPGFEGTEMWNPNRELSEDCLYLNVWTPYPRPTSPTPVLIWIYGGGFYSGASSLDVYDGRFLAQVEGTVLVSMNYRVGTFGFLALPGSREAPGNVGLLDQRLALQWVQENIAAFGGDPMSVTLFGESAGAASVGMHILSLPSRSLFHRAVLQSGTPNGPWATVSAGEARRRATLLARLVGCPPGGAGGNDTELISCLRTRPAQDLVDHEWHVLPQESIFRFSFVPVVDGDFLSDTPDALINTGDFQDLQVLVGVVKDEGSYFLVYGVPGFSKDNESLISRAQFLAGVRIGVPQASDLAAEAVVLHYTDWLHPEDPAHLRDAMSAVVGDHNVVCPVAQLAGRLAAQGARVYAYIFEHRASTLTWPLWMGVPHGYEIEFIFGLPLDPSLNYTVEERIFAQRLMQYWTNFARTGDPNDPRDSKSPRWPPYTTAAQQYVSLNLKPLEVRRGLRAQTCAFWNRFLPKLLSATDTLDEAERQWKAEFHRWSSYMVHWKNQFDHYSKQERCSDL
Experiment: Inhibitory activity against Acetylcholinesterase (AChE) in rat brain hippocampal crude homogenate
Type: tissue-based, Hippocampus

SMILES	IC50 [µM]
CC1(NCC2CCN(Cc3ccccc3)CC2)c2ccc(O)nc2CCC1O (stereo not drawn)	> 190
COc1ccc2c(n1)CCC(OC)C2(C)NC(=O)C1CCN(Cc2ccccc2)CC1 (stereo not drawn)	17.2
COc1ccc2c(n1)CCC(OC)C2(C)NCC1CCN(Cc2ccccc2)CC1 (stereo not drawn)	> 177
